{"source": "patent US6307014A", "about": "(priority 1998, dated 2001)", "test_system": "cholinergic synapse of the buccal ganglion", "format": "cell-based, Aplysia californica"}
{"substance": "Gla Cys Cys Gla Asp Gly BrW Cys Cys Thr Ala Ala OHP [P11.1]", "values": [{"measurement": "reversibility of the IPSC decrease", "result": "reversed by washing"}]}
